Values joined by “and” are separate entries in the source; they are usually repeats but may differ in a detail not shown here. Equal entries are not always repeated.
Experiments:
[1] = molecular target: T1, mouse Mfsd2a (Mus musculus, UniProt Q9DA75); test: Cell-based free fatty acid transport/uptake in Mfsd2a expressing HEK293 cells (mass spectrometry, TLC; Table 1); settings: for % DHA in PC + lysoPC / % DHA in PE + lysoPE / % DHA in PI and lysoPI / % DHA in PS: Mfsd2a expressing HEK293 cells
T1 construct: expressed in transfected cells; host or cells: HEK293
T1 sequence (Q9DA75 1-534): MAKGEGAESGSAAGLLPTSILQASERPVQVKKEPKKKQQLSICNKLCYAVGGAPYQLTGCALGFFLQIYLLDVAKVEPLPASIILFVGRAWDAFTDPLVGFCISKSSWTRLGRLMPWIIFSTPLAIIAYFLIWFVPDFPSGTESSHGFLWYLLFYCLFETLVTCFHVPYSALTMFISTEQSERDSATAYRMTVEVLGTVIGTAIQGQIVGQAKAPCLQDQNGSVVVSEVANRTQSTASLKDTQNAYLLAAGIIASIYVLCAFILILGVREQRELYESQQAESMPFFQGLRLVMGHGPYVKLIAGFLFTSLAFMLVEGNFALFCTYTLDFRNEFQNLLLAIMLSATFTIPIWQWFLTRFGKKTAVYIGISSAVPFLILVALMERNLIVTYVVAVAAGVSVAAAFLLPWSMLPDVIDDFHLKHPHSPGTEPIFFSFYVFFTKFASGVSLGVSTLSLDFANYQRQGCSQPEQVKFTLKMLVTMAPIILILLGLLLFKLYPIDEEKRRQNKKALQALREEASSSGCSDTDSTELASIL
Procedure, shortened: (§1)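 HEK293 cells expressing mouse Mfsd2a, or mock controls, were incubated overnight with 100 μM BSA-complexed fatty acids. Lipids were extracted in hexane:isopropanol (3:2) and phospholipid species quantified by HPLC-MS/MS against spiked internal standards. For TLC, cells received 100 μM [^14C]-oleate overnight, and phospholipids and neutral lipids were resolved.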

[2] = test system: mouse Mfsd2a; test: as above; settings: mock HEK293 cells
Procedure, shortened: as §1

[3] = molecular target: T2, Mfsd2a (Mus musculus, UniProt Q9DA75); test: Dietary DHA transport from mother to fetus (fetal brain uptake); format: in vivo, mice; parameters: from tissue; host or cells: living mice; brain (blood-brain barrier endothelium), liver, heart; fetal brain
T2 sequence (Q9DA75 1-534): T1 sequence (Q9DA75 1-534)
Protocol: FIG. 21. […] Heterozygous female mice were gavaged with 100 ul DHA oil (containing 26% DHA triglyceride and 6% EPA, total omega-3 is 35%) every 2 days for 2 weeks prior to conception in crosses with KO males. […] The rationale for using HET and KO intercrosses was to increase the yield of KO mice in this rescue study. During gestation, pregnant mice were continued on gavages of DHA every 2 days. Gavages of mothers continued during breastfeeding and pups were weaned onto normal diet at 3 weeks of age and gavaged every 2 days with DHA for 8 weeks. a, brain weight of adult WT (n=4) and KO (n=4) mice aged 8 weeks after treatment with dietary DHA oil. […] To test this possibility, pregnant het mothers intercrossed to KO fathers at e17.5-e19.5, were gavaged with [^14C]DHA and uptake into fetal brains were quantified. […] Data are expressed as mean±SEM. *P<0.05. ***P<0.001.
Male and female mice of age of 6-8 weeks were IV injected with 75 μl of 20 mM radiolabeled LPC-[…], 100 μl of 10 mM LPC-[^14C]DHA/BSA complex or 82 μl of 12.2 mM [^14C]DHA/BSA complex in a total volume of 150 μl of phosphate-buffered saline. […] Lipids from the organic phase were mixed with scintillant and scintillation counted. […] Brain sections of WT and KO with a thickness of 40 μm were prepared and scanned using green fluorescence mode in Typhoon FLA 9000 scanner (Agilent). […]

[4] = molecular target: T2, Mfsd2a; test: In vivo transport of radiolabeled, fluorescent LPCs and unesterified DHA in Mfsd2a KO and wild-type mice; parameters: from tissue; host or cells: living mice; brain (blood-brain barrier endothelium), liver, heart; fetal brain
Protocol: Male and female mice of age of 6-8 weeks were IV injected with 75 μl of 20 mM radiolabeled LPC-[…], 100 μl of 10 mM LPC-[^14C]DHA/BSA complex or 82 μl of 12.2 mM [^14C]DHA/BSA complex in a total volume of 150 μl of phosphate-buffered saline. At 2 hours post injection, mice were anesthetized and perfused for 5 mins with PBS containing 0.5% BSA in order to remove blood and lipid tracer bound to the brain vasculature. Tissues were harvested for lipid extraction. For lipid extraction, tissues were weighed and similar amounts of tissues were homogenized in chloroform/methanol. Lipids from the organic phase were mixed with scintillant and scintillation counted. Similar experiments were also performed with an injection of 300 μg NBD-LPC/BSA or 300 μg TopFluor-LPC/BSA complex per mouse. In this experiment, mice were perfused for 5 mins with PBS followed 15 mins perfusion with 4% paraformaldehyde (PFA) for tissue fixation. Brain sections of WT and KO with a thickness of 40 μm were prepared and scanned using green fluorescence mode in Typhoon FLA 9000 scanner (Agilent). NBD-LPC accumulation was expressed as fluorescence of each section per its area. Dietary DHA transport from mother to fetus was also measured using [^14C]DHA/BSA complex. Pregnant females at e18.5 was gavaged with bolus of [^14C]DHA/BSA complex (200 μl of 10 mM [^14C]DHA/BSA/mouse). Brain of fetuses were collected 20 hours post-gavage and weighed. Lipid extraction and radioactivity were performed as described above.

[5] = 100 uM Alpha-linolenic fatty acid/BSA overnight, replicate columns
[6] = 100 uM Arachidonic fatty acid/BSA overnight
[7] = 100 uM Eicosapentaenoic fatty acid/BSA overnight
[8] = 100 uM Docosahexaenoic acid/BSA overnight
[9] = 100 uM Eicosapentaenoic acid/BSA overnight
[10] = 100 uM Linoleic fatty acid/BSA overnight
[11] = 100 uM Oleic fatty acid/BSA overnight

With `CCC=CCC=CCC=CCC=CCC=CCC=CCC[14C](=O)O` [[^14C]DHA, [1-^14C]docosahexaenoic acid, reference compound] the “transport of unesterified fatty acid by Mfsd2a” value ([1]; HEK293 cells, 100 μM fatty acid/BSA overnight) was “did not transport”, the “% DHA in PC + lysoPC” value [1, 5] was 0.2353% and 0.2194% and 0.2422% and 0.2191% and the “% DHA in PE + lysoPE” value [1, 5] was 13.49% and 15.19% and 13.82% and 14.8475%. The “% DHA in PI and lysoPI” value [1, 5] was 0.05995% and 0.06331% and 0.07073% and 0.06627%, the “% DHA in PS” value [1, 5] was 0.1602% and 0.1425% and 0.1723% and 0.1454% and the “% DHA in PC + lysoPC” value [1, 6] was 0.08166% and 0.07964% and 0.09753% and 0.09194%. For the same compound, the “% DHA in PE + lysoPE” value [1, 6] was 7.284% and 8.765% and 7.721% and 8.735%, the “% DHA in PI and lysoPI” value [1, 6] was 0.01388% and 0.01389% and 0.0161% and 0.01507% and the “% DHA in PS” value ([1]; 100 uM Arachidonic fatty acid/BSA overnight, replicate columns) was 0.1231% and 0.1085% and 0.1181% and 0.1151%. For the same compound, the “% DHA in PE + lysoPE” value [1, 7] was 18.3299% and 16.89% and 16.6% and 16.53%, the “% DHA in PI and lysoPI” value [1, 7] was 0.048% and 0.05677% and 0.0498% and 0.05152% and the “% DHA in PS” value [1, 7] was 0.2062% and 0.2182% and 0.1861% and 0.2178%. For the same compound, the “% DHA in PC + lysoPC” value ([1]; 100 uM Linoleic fatty acid/BSA overnight, replicate columns) was 0.06735% and 0.06556% and 0.06667% and 0.06486%, the “% DHA in PC + lysoPC” value [1, 8] was 0.4167% and 0.3839% and 0.3923% and 0.3416% and the “% DHA in PE + lysoPE” value [1, 8] was 26.88% and 25.05% and 25.61% and 24.93%. The “% DHA in PI and lysoPI” value [1, 8] was 0.2363% and 0.1967% and 0.2348% and 0.1831%, the “% DHA in PS” value [1, 8] was 0.4937% and 0.5293% and 0.485% and 0.4533% and the “% DHA in PC + lysoPC” value [1, 9] was 0.1577% and 0.1414% and 0.143% and 0.141%. For the same compound, the “% DHA in PE + lysoPE” value [1, 10] was 10.0396% and 9.979% and 10.14% and 10.29%, the “% DHA in PI and lysoPI” value [1, 10] was 0.01746% and 0.01513% and 0.01522% and 0.01521% and the “% DHA in PS” value [1, 10] was 0.1229% and 0.1239% and 0.1343% and 0.1145%. The “% DHA in PC + lysoPC” value [1, 11] was 0.04304% and 0.04054% and 0.04274% and 0.04139%, the “% DHA in PE + lysoPE” value [1, 11] was 10.39% and 10.24% and 9.206% and 11.33% and the “% DHA in PI and lysoPI” value [1, 11] was 0.01405% and 0.01452% and 0.01424% and 0.01275%. For the same compound, the “% DHA in PC + lysoPC” value [2, 6] was 0.09113% and 0.09288% and 0.09495%, the “% DHA in PE + lysoPE” value [2, 6] was 8.696% and 8.987% and 7.919% and the “% DHA in PI and lysoPI” value [2, 6] was 0.01273% and 0.01321% and 0.01121%. The “% DHA in PE + lysoPE” value [2, 7] was 15.99% and 18.52% and 17.73%, the “% DHA in PI and lysoPI” value [2, 7] was 0.03815% and 0.04977% and 0.04803% and the “% DHA in PS” value [2, 7] was 0.1841% and 0.2258% and 0.1957%. For the same compound, the “% DHA in PC + lysoPC” value [2, 8] was 0.4237% and 0.3234% and 0.432%, the “% DHA in PE + lysoPE” value [2, 8] was 26.43% and 26.89% and 27.48% and the “% DHA in PI and lysoPI” value [2, 8] was 0.204% and 0.2547% and 0.2244%. For the same compound, the “% DHA in PS” value [2, 8] was 0.5491% and 0.6402% and 0.653%, the “% DHA in PC + lysoPC” value [2, 9] was 0.1385% and 0.1469% and 0.1528% and the “% DHA in PE + lysoPE” value [2, 10] was 9.697% and 10.5% and 10.2%. For the same compound, the “% DHA in PI and lysoPI” value [2, 10] was 0.01565% and 0.01716% and 0.01581%, the “% DHA in PS” value [2, 10] was 0.1596% and 0.1455% and 0.1427% and the “% DHA in PC + lysoPC” value [2, 11] was 0.04427% and 0.04402% and 0.04911%. For the same compound, the “% DHA in PE + lysoPE” value [2, 11] was 10.41% and 11.83% and 10.1%, the “% DHA in PI and lysoPI” value [2, 11] was 0.01286% and 0.01294% and 0.01231% and the “brain uptake by KO embryos compared to wild-type embryos” value ([3]; e18.5, maternal gavage) was “dramatically reduced”. For the same compound, the “reduction in fetal brain uptake, KO relative to het” value ([3]; pregnant het mothers gavaged at e17.5-e19.5) was 80%, the “brain uptake in KO mice relative to wild-type” value ([4]; i.v. injection, 2 hrs post-injection, radiolabel) was “not reduced” and the “brain uptake, unesterified DHA compared with LPC-DHA” value ([4]; wild-type brain, same amount injected i.v., 2 hrs) was “significantly lower”.
